Where two headings read alike, the source gives them in different places.
Tests used:
[1] = target: firefly luciferase, Photinus pyralis (FLuc) (Photinus pyralis, UniProt P08659); experiment: biochemical; type: biochemical; details: for FLuc Parameters Hill Coef: Hill equation fit of CRC; for Emax: response relative to PTC124 control inhibitor, negative = inhibition, read-out: FLuc Parameters Efficacy
Protocol: (§1) The bioluminescence outputs were measured by an EnVision reader (PerkinElmer, Wellesley, MA). Due to the relatively short luminescence duration of the RLuc assay, dispense time constants were set to match closely to the read time of the plate reader. As a result, each individual well was read with approximately the same time delay from reagent dispense to signal acquisition. See Table 1 for the 1536-well assay protocols.
(§2) Data from each assay was normalized plate-wise to corresponding intraplate controls as described previously, [17]. The same control data sets were also used for the calculation of Z′ factors from each assay. In all assays, wells containing DMSO were used as no-response controls. For the FLuc enzymatic assay, each compound-treated well on the plate was normalized to the average readings of n = 24 PTC124 treated wells and n = 48 DMSO wells from the same plate. Wells were scaled to a full range of DMSO and zero, and then normalized using the maximum response observed in the screen as 100% activity. For the RLuc enzymatic assay, n = 24 BTS treated wells for the positive control, n = 48 DMSO. MSR values were calculated using the cumulative potency differences of the de-interleaved duplicate control titrations from each plate as previously described. The normalized data from each assay plate set was corrected using DMSO-only treated assay plates read at the start and end of each assay run, and the resulting inter-plate titration data fit, using in-house software, to the standard Hill equation and dose-response curves automatically classified as described previously.
(§3) The curve classification scheme for assignment of resulting curve-fit data into CRC classes was according to Inglese et al. as follows: class 1 curves (far left) display two asymptotes, an inflection point, and r^2≥0.9; subclasses 1a vs. 1b are differentiated by full (>80%) vs. partial (≤80%) response. Class 2 curves (second from left) display a single left-hand asymptote and inflection point; subclasses 2a (or 2.1) and 2b (2.2) are differentiated by a max response and r^2, >80% and >0.9 or <80% and <0.9, respectively. Class 3 curves (second from right) have a single left-hand asymptote, no inflection point, and a response >3SD from the mean activity of the sample field.

[2] = target: T1, Renilla luciferase (RLuc) (Renilla reniformis, UniProt P27652); experiment: RLuc enzymatic assay (purified enzyme, qHTS, 1536-well); type: biochemical; details: 1 nM RLuc, 5 µM coelenterazine-H
T1 sequence (P27652 1-311): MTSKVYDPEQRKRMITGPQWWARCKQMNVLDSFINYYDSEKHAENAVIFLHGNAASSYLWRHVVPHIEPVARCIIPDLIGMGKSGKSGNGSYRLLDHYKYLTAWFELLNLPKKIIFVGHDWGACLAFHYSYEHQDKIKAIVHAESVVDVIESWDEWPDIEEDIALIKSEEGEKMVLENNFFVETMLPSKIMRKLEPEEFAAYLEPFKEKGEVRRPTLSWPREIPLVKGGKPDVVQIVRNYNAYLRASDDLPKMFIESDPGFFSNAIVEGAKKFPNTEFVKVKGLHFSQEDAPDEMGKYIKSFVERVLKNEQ
Protocol: as §1, with “1 µL of purified luciferase was then dispensed into each well for final concentrations 10 nM FLuc or 1 nM RLuc. The” for “The”
as §2, §3

[3] = test system: CDK; set-up: method as in Stevens, K. L., et al. 2008; details: ref Stevens, K. L., et al. 2008; read-out: PKI IC50 (µM), CDK; cited from earlier work
[4] = test system: VEGFR2; details: ref Harris, P.A., et al. 2005; read-out: PKI IC50 (µM), VEGFR2; cited from earlier work
[5] = 10 nM FLuc, 10 µM D-luciferin, 10 µM ATP, read-out: FLuc Parameters IC50

Sequence of firefly luciferase, Photinus pyralis (FLuc) (P08659 whole entry): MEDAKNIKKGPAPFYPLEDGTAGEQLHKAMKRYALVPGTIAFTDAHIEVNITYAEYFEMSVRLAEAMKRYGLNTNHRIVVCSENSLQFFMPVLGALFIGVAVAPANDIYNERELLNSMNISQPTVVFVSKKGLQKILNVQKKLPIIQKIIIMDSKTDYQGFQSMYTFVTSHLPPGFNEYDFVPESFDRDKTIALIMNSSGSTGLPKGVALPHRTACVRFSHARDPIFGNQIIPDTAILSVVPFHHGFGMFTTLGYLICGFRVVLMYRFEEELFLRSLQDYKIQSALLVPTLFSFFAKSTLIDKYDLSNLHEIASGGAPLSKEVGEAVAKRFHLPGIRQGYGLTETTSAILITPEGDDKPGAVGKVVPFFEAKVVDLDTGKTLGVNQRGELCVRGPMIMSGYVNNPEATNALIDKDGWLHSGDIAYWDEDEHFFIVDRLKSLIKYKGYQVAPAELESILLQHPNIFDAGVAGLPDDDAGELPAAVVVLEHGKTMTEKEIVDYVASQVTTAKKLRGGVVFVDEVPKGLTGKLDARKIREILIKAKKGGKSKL

SMILES	IC50 [1, 5] [µM]	IC50 ([1]; Figure 2b, representative structures of clusters, read-out: FLuc IC50) [µM]	FLuc Parameters Hill Coef [1]	IC50 ([1]; Table 3, read-out: FLuc IC50) [µM]	Emax [1] [%]	RLuc Curve Class [2]	IC50 [3] [µM]	IC50 [4] [µM]
c1cc(-c2cnn3nc(N4CCOCC4)ccc23)nc(NC2CC2)n1 [GW708336X]	4.61	5	1	4.61	108	4	0.4	–
COc1ccccc1Nc1ncc(-c2ccccc2)o1 [GW577921A]	1.03	–	1	1.03	102	4	–	0.38
